Measurements taken from publication PMC11604048, “Constrained TACC3 peptidomimetics for a non-canonical protein–protein interface elucidate allosteric communication in Aurora-A kinase” (Chemical Science, 2024).
Positions count from the first letter of the chain named. Numbers in names are those of the source. *1 amine or outer side, *2 acyl side, *3 side chain or, on linkers, in order; H or OH if unused. Where a SMILES comes first, the peptide text is derived from it. Bridges are numbered along the chain shown (N, C = ends). Where no end group is shown, it is not given here. [ ]: non-standard residue; d: D form. The star is where a group is joined. 5FAM = O=C1OC2(c3ccc(O)cc3Oc3cc(O)ccc32)c2ccc(C(=O)*)cc21; Biphenyl(4,4'-CH2)2 = c1cc(-c2ccc(C[*:2])cc2)ccc1C[*:1]; Pro(trans-4-F) = O=C(O)[C@@H]1C[C@@H](F)CN1; Phe(4-Br) = N[C@@H](Cc1ccc(Br)cc1)C(=O)O; Phe(4-Cl) = N[C@@H](Cc1ccc(Cl)cc1)C(=O)O; Phe(4-I) = N[C@@H](Cc1ccc(I)cc1)C(=O)O; Nle = CCCC[C@H](N)C(=O)O; Ahx = NCCCCCC(=O)O

Assays:
[1] = biological target: T1, Aurora-A122-403-C290A/C393A (Homo sapiens, UniProt O14965, C290A/C393A); experiment: FA direct binding assay (Aurora-A titrated into FAM-Ahx-labelled peptide); parameters: ΔG: unit not given here; settings: 50 nM fluorescein-labelled peptide
T1 construct: Human Aurora-A kinase domain 122-403 wild-type or C290A/ C393A mutant; His tag (pET30TEV vector) (N, cleaved yes); made in house; host or cells: E. coli RIL, co-expressed with lambda phosphatase (Aurora-A); tracer by solid phase synthesis
T1 sequence (O14965 122-403 C290A/C393A): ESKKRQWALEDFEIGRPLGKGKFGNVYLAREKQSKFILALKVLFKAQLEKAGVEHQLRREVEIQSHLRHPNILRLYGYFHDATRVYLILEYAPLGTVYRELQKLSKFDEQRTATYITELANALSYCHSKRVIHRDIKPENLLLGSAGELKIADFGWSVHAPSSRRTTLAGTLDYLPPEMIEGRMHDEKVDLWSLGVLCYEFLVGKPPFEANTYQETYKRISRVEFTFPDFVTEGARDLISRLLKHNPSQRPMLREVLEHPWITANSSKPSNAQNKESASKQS
Protocol: Fluorescence anisotropy (FA) assays – General information.
All assays were performed using 384-well plates(Greiner Bio-one, UK). […]
produced as described previously.11 All samples were prepared in 25 mM Tris,150 mM NaCl, 5 mM MgCl2, […]
(PerkinElmer; Waltham, MA, USA).The parameters were set as follows: Excitation wavelength = 480 nm […]
Measured data were processed and analysed as previously described.12 Specifically, the perpendicular intensity (P) and parallel intensity (S) were subtracted by the control values and used for calculations of intensity and anisotropy using the following Equations 1, 2, 3, 4, and 5:
I= (2PG) + S Eq. (SI − 5)
r = (S − PG) Eq. (SI − 6)
L = r − r௠௜௡ Eq. (SI − 7)
y = (k + x + [FL]) − ඥ(k + x + [FL]2 − 4 ∗ x ∗ [FL]) Eq. (SI − 8)
y = r + r௠௜௡ − r௠௔௫ Eq. (SI − 9)
Where I = total intensity; P = perpendicular intensity; S = parallel intensity; G = instrument factor; r = anisotropy; Lb = ligand bound fraction; λ = change in intensity between bound and unbound states which […]
FA direct binding assays. […]
starting from 700 μM, diluted over 24 points in a 1/2 regime using the FAM-Ahx-labeled peptides at a final fixed concentration of 50 nM per well.

[2] = biological target: T1, Aurora-A122-403-C290A/C393A; experiment: Variable-temperature fluorescence anisotropy (VT-FA) Van't Hoff analysis; type: binding
Protocol: Variable-temperature fluorescence anisotropy (VT-FA) Van't Hoff analysis. Variable temperature-fluorescent anisotropy assays were performed in 384-well plates (Greiner Bio-one) with Aurora-A 122-403-290A/C393A protein dialyzed into different assay buffers before use. In this experiment, we prepared five […]
Buffer 1 – 25 mM HEPES, 150 mM NaCl, 5 mM MgCl2, pH= 7.5, Buffer 2 – 25 mM Tris, 150 mM NaCl, 5 mM MgCl2, pH= 7.5, Buffer 3 – 25 mM HEPES, 5 mM MgCl2, pH= 7.5, Buffer 4– 25 mM HEPES, 150 mM NaCl, 5 mM MgCl2, pH= 6.0, Buffer 5– 25 mM HEPES, 150 mM NaCl, 5 mM MgCl2, pH= 8.0, The protein concentration in the first well started at 237 μM in the corresponding buffer, and was diluted over 16 points in a 1/2 dilution regime. The concentration of the labeled peptide was fixed at 50 nM per well. After incubation of the plate at room temperature for 1 h, the plates were read at increasing intervals of 2.5°C, following a minimum period of 5 min equilibration at each temperature. The data was processed as previously described and the ln Ka at each temperature plotted against 1/T (K). The ΔG°, ΔH° and -T*ΔS° were calculated according to Van’t Hoff’s equation (6): […]
(§1) r = r଴ + A x e భ Eq. (SI - 10)
τ = tଵ ln(2) Eq. (SI - 11) […]
Western blots were performed using an anti-Phospho-Thr288

[3] = biological target: T1, Aurora-A122-403-C290A/C393A; experiment: Competition FA assay against FAM-Ahx-TACC3 522-536 tracer; type: binding; settings: SD; read-out: IC50
[4] = biological target: T1, Aurora-A122-403-C290A/C393A; experiment: Isothermal titration calorimetry (ITC); type: binding; settings: ITC as E13
Protocol: Isothermal titration calorimetry (ITC). ITC experiments were carried out using a MicroCal PEAQ-ITC system (Malvern Panalytical) at 25 °C. A stock solution of Aurora-A 122-403-290A/C393A was dialyzed into ITC buffer overnight (25 mM Tris buffer, pH= 7.5; 150 mM NaCl; 5 mM MgCl2; 5 % v/v glycerol), and the same buffer was employed to resuspend a solid portion of the testing peptides. For each experiment, initially, the cell was filled with 275 µl of Aurora-A122-403-290A/C393A (46 μM) and the syringe was loaded with the corresponding peptide at 1.25 mM concentration. An initial injection of 0.5 μL was then followed by 13 injections of 3 μL, every 150 s, with a constant syringe rotation speed of 750 rpm throughout. The signal for the enthalpy of dilution of each peptide into buffer was independently measured in a control titration experiment and then subtracted from the experimental binding traces. The Kd, ΔG°, ΔH° and -TΔS° values were determined via the MicroCal PEAQ-ITC analysis software (Malvern Paranalytical) using a single-site binding model. […]

[5] = Peptide enzymatic degradation assay, α-chymotrypsin; type: in vitro ADME, bovine; settings: isolated enzyme chymotrypsin; α-chymotrypsin (bovine pancreas), peptide 100 µM, peptide/enzyme molar ratio [P]/[E]= 25, HEPES 25 mM, pH 7.5, 25 °C, 6 hours; RP-HPLC peak area, exponential decay fit; three independent experiments, mean ± SD; SD; read-out: t1/2 in the presence of α-chymotrypsin
Protocol: into individual aliquots at -20 °C. […]
a concentration of 1 mg mL−1 concentration. The digestion samples were immediately prepared by mixing […]
were then incubated at 25 °C for 6 hours. […]
thermo-shaker for 6 hours. […]
presence of enzyme (t=0). […]
as §1
τ = tଵ ln(2) Eq. (SI - 11)
In all cases, control samples were […]
replicates and error bars indicating the corresponding SD. […]

[6] = biological target: T2, Aurora-A 122-403 (Homo sapiens, UniProt O14965); experiment: fluorescence anisotropy competition
T2 chain: T1 sequence (O14965 122-403 C290A/C393A) with A169C, A272C

[7] = as E43, Buffer 1 – 25 mM HEPES, 150 mM NaCl, 5 mM MgCl2, pH= 7.5
[8] = as E43, Buffer 2 – 25 mM Tris, 150 mM NaCl, 5 mM MgCl2, pH= 7.5
[9] = as E43, Buffer 3 – 25 mM HEPES, 5 mM MgCl2, pH= 7.5
[10] = as E43, Buffer 4 – 25 mM HEPES, 150 mM NaCl, 5 mM MgCl2, pH= 6.0
[11] = as E43, Buffer 5 – 25 mM HEPES, 150 mM NaCl, 5 mM MgCl2, pH= 8.0

Which results are given for `CC(C)C[C@H](NC(=O)[C@@H](NC(=O)[C@H](CCC(=O)O)NC(=O)[C@H](C)NC(=O)[C@@H]1C[C@@H](F)CN1C(=O)[C@H](CC(=O)O)NC(=O)[C@@H]1CSCc2ccc(cc2)-c2ccc(cc2)CSC[C@H](NC(=O)[C@H](CCC(=O)O)NC(=O)[C@H](CC(C)C)NC(=O)CCCCCNC(=O)c2ccc3c(c2)C(=O)OC32c3ccc(O)cc3Oc3cc(O)ccc32)C(=O)N[C@@H](CCCCN)C(=O)N[C@@H](CCC(=O)O)C(=O)N[C@@H](CCC(=O)O)C(=O)N[C@@H](CO)C(=O)N[C@@H](Cc2ccc(I)cc2)C(=O)N1)C(C)C)C(N)=O` [FAM-Ahx-TACC3 518-532-L/R-Bph-IF/fP] ({5FAM-Ahx}-LECKEES[Phe(4-I)]CD[Pro(trans-4-F)]AEVL-NH2; linker 3-9 via Biphenyl(4,4'-CH2)2)?
Kd ([1]; Table S6, direct FA titration, Tris buffer pH 7.5, mean ± SD, n = 6, read-out: Kd): 1.42 ± 0.24 µM; ΔG ([1]; Table S6, from direct FA titration, mean ± SD, n = 6): -33.4 ± 0.5; ΔΔGConstrained-WT ([2]; VT-FA Van't Hoff, 50 nM FAM-Ahx tracers, 25-35 °C, constrained minus linear FAM-Ahx-TACC3 518-532, Buffer 1 – 25 mM HEPES, 150 mM NaCl, 5 mM MgCl2, pH= 7.5, triplicate): -4.50 ± 3.6 kJ mol -1; ΔTΔSConstrained-WT [2, 7]: -17.91 ± 2.4 kJ mol -1; ΔΔHConstrained-WT [2, 7]: 14.18 ± 2.5 kJ mol -1; ΔTΔSConstrained-WT [2, 8]: -17.85 ± 1.6 kJ mol -1; ΔΔGConstrained-WT [2, 8]: -3.17 ± 2.0 kJ mol -1; ΔΔHConstrained-WT [2, 8]: 14.67 ± 0.4 kJ mol -1; ΔTΔSConstrained-WT [2, 9]: -22.94 ± 2.9 kJ mol -1; ΔΔGConstrained-WT [2, 9]: -6.82 ± 5.9 kJ mol -1; ΔΔHConstrained-WT [2, 9]: 16.12 ± 3.0 kJ mol -1; ΔTΔSConstrained-WT [2, 10]: -11.33 ± 2.0 kJ mol -1; ΔΔGConstrained-WT [2, 10]: -4.06 ± 4.1 kJ mol -1; ΔΔHConstrained-WT [2, 10]: 7.27 ± 2.1 kJ mol -1; ΔTΔSConstrained-WT [2, 11]: -13.22 ± 0.9 kJ mol -1; ΔΔGConstrained-WT [2, 11]: -3.02 ± 1.8 kJ mol -1; ΔΔHConstrained-WT [2, 11]: 10.19 ± 0.9 kJ mol -1

With `CC(=O)N[C@@H](CC(C)C)C(=O)N[C@@H](CCC(=O)O)C(=O)N[C@@H](CC(C)C)C(=O)N[C@@H](CCCCN)C(=O)N[C@@H](CCC(=O)O)C(=O)N[C@@H](CCC(=O)O)C(=O)N[C@@H](CO)C(=O)N[C@@H](Cc1ccccc1)C(=O)N[C@@H](CCCNC(=N)N)C(=O)N[C@@H](CC(=O)O)C(=O)N1CCC[C@H]1C(=O)N[C@@H](C)C(=O)N[C@@H](CCC(=O)O)C(=O)N[C@H](C(=O)N[C@@H](CC(C)C)C(N)=O)C(C)C` [TACC3 518-532] as the molecule, how does the IC50 [3] read?
Its IC50 is 123 ± 6 µM.

What about the Kd ([4]; N restrained fit, Run 1) of the same molecule?
The Kd was 30.3 µM.

And the Kd ([4]; N restrained fit, Run 2)?
Its Kd is 34.5 µM.

What about the Kd ([4]; N unrestrained fit, Run 1) of the same molecule?
The Kd was 46 µM.

And the Kd ([4]; N unrestrained fit, Run 2)?
The Kd was 36.8 µM.

And the half-life at 100 µM [5]?
Its half-life at 100 µM is 32 ± 4 min.

With LELKEESFRDPAEVL (not fully specified; L520C/R526C biphenyl constraint; Aurora-A C290A+C393A) [TACC3 L/R-Bph 518-532] as the molecule, how does the IC50 [6] read?
The IC50 was roughly 30 µM.

With EESFRDPAEV[Nle]GTGA [TACC3 L532nL 522-536] as the molecule, how does the IC50 [6] read?
The IC50 was 213 µM.

Which IC50 [6] does the source give for EESFRDPAE[Nle]LGTGA [TACC3 V531nL 522-536] here?
Its IC50 is greater than 300 µM.

Which IC50 [6] does the source give for EES[Phe(4-Cl)]RDPAEVLGTGA [TACC3 (4-Cl)Phe525 522-536] here?
The IC50 was 46 µM.

With EESFRD[trans‑Pro(4-F)]AEVLGTGA [TACC3 trans-(4-F)Pro528 522-536] as the molecule, how does the IC50 [6] read?
Its IC50 is 60 µM.

For EESFRD[cis‑Pro(4-F)]AEVLGTGA [TACC3 cis-(4-F)Pro528 522-536], which IC50 [6] is on record?
The IC50 was greater than 200 µM.

Which IC50 [6] does the source give for EES[Phe(4-Br)]RDPAEVLGTGA [TACC3 (4-Br)Phe525 522-536] here?
The IC50 was 34 µM.
